Literature values, collected in patent publication US20160034667A1, “TAILORED DRUG THERAPIES AND METHODS AND SYSTEMS FOR DEVELOPING SAME” (COMPANION DX REFERENCE LAB, LLC, priority 2014, published 2016).
Where two headings read alike, the source gives them in different places.

Columns and labels:
[1] = not given; remark: listed apart in the source
CYP2D6 = CYP2D6 (Homo sapiens, UniProt P10635)
[2] = tested on: molecularly unselected NSCLC patients; conditions: FIG. 8 (A)
[3] = tested on: NSCLC patients with drug-sensitive EGFR mutations
[4] = printed on the line of the peak range
[5] = printed on the line of the trough range

Chain of CYP2D6 (P10635 whole entry): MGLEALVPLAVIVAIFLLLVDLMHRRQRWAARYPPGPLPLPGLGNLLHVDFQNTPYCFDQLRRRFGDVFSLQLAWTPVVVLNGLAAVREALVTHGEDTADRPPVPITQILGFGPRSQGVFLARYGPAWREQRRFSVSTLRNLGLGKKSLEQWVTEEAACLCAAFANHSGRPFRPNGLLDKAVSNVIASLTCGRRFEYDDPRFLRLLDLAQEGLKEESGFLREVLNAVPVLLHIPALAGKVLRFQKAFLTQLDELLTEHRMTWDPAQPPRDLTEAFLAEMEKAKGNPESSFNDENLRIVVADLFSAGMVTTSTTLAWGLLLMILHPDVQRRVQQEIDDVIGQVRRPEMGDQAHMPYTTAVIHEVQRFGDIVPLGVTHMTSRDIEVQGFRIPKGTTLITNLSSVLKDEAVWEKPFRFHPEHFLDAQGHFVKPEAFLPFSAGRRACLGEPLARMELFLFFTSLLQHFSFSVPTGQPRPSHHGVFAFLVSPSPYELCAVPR

Compound | Critical (in vivo) | Therapeutic Range (in vivo) | t1/2 (in vivo) | also measured
CC(=O)Nc1ccc(O)cc1 [Acetaminophen] | >40 mg/L | 10 to 25 mg/L | 1 to 3 h | –
NCC[C@H](O)C(=O)N[C@@H]1C[C@H](N)[C@@H](O[C@H]2O[C@H](CN)[C@@H](O)[C@H](O)[C@H]2O)[C@H](O)[C@H]1O[C@H]1O[C@H](CO)[C@@H](O)[C@H](N)[C@H]1O [Amikacin] | >40 mg/L | – | 2.5 h | Therapeutic Range, peak: peak 20-30 mg/L,; Therapeutic Range, trough: trough 1-8 mg/L
CCCC(CCC)C(=O)O [Valproic acid] | >200 mg/L | 50 to 100 mg/L | 8 to 15 h | –
CCC1(c2ccccc2)C(=O)NCNC1=O [Primidone] | >15 mg/L | 5 to 12 mg/L | 6 to 12 h | –
O=C(O)c1ccccc1O [Salicylate] | >450 mg/L | 100 to 300 mg/L | 2 to 19 h | –
O=C1NC(=O)C(c2ccccc2)(c2ccccc2)N1 [Phenytoin] | >25 mg/L | 10 to 20 mg/L | 6 to 24 h | –
COc1cc2ncnc(Nc3ccc(F)c(Cl)c3)c2cc1OCCCN1CCOCC1 [gefitinib, Gefitinib] | – | – | – | reduction of area under the curve of gefitinib ([1]; co-medication with CYP3A4 inducer rifampin): 83%; exposure to gefitinib ([1]; co-medication with CYP3A4 inhibitor (intraconazole), health men): increases exposure; inhibition of CYP2D6 activity (CYP2D6): weak inhibitor; progression free survival rate [2]: no detectable change
Cn1c(=O)c2[nH]cnc2n(C)c1=O [Theophylline] | – | 10 to 20 mg/L | 3 to 9 h | –
[Li] [Lithium] | >2.0 mmol/L | 0.5 to 1.5 mmol/L | 19 h | –
Gentamicin | >12 mg/L | – | 2 h | Therapeutic Range, peak: peak 4-10 mg/L,; Therapeutic Range, trough: trough 1-2 mg/L
NC[C@H]1O[C@H](O[C@H]2[C@H](O)[C@@H](O[C@H]3O[C@H](CO)[C@@H](O)[C@H](N)[C@H]3O)[C@H](N)C[C@@H]2N)[C@H](N)C[C@@H]1O [Tobramycin] | – | – | 2 h | Therapeutic Range, peak: peak 4-10 mg/L,; Critical [4]: >12 mg/L,; Critical [5]: >5 mg/L; Therapeutic Range, trough: trough 0.5-1.5 mg/L
CCN(CC)CCNC(=O)c1ccc(NC(C)=O)cc1 [NAPA, N-acetylprocainamide] | – | – | 6 to 12 h | –
CCN(CC)CC(=O)Nc1c(C)cccc1C [Lidocaine] | >8.0 mg/L | 1.5 to 5 mg/L | – | –
CN[C@H](CC(C)C)C(=O)N[C@H]1C(=O)N[C@@H](CC(N)=O)C(=O)N[C@H]2C(=O)N[C@H]3C(=O)N[C@H](C(=O)N[C@H](C(=O)O)c4cc(O)cc(O)c4-c4cc3ccc4O)[C@H](O)c3ccc(c(Cl)c3)Oc3cc2cc(c3O[C@@H]2O[C@H](CO)[C@@H](O)[C@H](O)[C@H]2O[C@H]2C[C@](C)(N)[C@H](O)[C@H](C)O2)Oc2ccc(cc2Cl)[C@H]1O [Vancomycin] | – | – | 5.0 to 6.5 h | Therapeutic Range, peak: peak 30-40 mg/L,; Critical [4]: >50 mg/L,; Critical [5]: >15 mg/L; Therapeutic Range, trough: trough 5-15 mg/L
C#Cc1cccc(Nc2ncnc3cc(OCCOC)c(OCCOC)cc23)c1 [erlotinib] | – | – | – | response in patients with drug-sensitive EGFR mutations at Exon 19 and 21 [3]: significantly better response
C[C@H]1O[C@@H](O[C@H]2[C@@H](O)C[C@H](O[C@H]3[C@@H](O)C[C@H](O[C@H]4CC[C@@]5(C)[C@H](CC[C@@H]6[C@@H]5C[C@@H](O)[C@]5(C)[C@@H](C7=CC(=O)OC7)CC[C@]65O)C4)O[C@@H]3C)O[C@@H]2C)C[C@H](O)[C@@H]1O [Digoxin] | – | – | 33 to 51 h | –
CCC1(c2ccccc2)C(=O)NC(=O)NC1=O [Phenobarbital] | – | – | 72 to 100 h | –
NC(=O)N1c2ccccc2C=Cc2ccccc21 [Carbamazepine] | >15 mg/L | 8 to 12 mg/L | 10 to 48 h | –
C=C[C@H]1C[N@@]2CC[C@H]1C[C@@H]2[C@@H](O)c1ccnc2ccc(OC)cc12 [Quinidine] | >7 mg/L | – | – | –
